Reference: ChEMBL document CHEMBL5625239, “Synthesis of 1,3,5-triphenyl-1,2,4-triazole derivatives and their neuroprotection by anti-oxidative stress and anti-inflammation and protecting BBB” (Eur J Med Chem, 2023)
The source made the active and inactive calls. The rule behind the calls is not given here.

What was measured:
[1] = biological target: T1, Prostaglandin G/H synthase 1 (Ovis aries, UniProt P05979); test: Inhibition of ovine COX-1 using arachidonic acid as substrate preincubated with compound for 5 mins followed by substrate addition and measured after 2 mins by enzyme immunoassay
T1 sequence (P05979 whole entry): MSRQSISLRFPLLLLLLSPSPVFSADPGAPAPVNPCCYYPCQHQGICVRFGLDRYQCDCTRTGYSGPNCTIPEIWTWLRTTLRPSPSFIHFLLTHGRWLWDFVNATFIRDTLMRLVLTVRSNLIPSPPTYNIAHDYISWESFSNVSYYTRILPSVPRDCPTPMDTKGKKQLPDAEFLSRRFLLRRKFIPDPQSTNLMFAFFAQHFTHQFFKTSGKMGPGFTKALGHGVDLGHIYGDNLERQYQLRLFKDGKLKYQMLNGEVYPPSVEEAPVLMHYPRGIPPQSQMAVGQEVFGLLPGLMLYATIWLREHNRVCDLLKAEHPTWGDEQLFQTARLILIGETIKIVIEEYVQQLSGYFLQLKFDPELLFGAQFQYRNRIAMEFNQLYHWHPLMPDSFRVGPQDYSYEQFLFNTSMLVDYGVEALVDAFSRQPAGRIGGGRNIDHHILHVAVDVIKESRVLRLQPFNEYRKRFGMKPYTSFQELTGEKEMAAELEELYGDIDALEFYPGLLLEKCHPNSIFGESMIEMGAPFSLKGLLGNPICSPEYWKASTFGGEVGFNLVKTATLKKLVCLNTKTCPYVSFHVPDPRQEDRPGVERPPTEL

RAW264.7 [2] = test: Cytotoxicity against mouse RAW264.7 cells assessed as reduction in cell viability at 5 uM incubated for 24 hrs by MTT assay; format: toxicity, cell-based; conditions: raw264.7, 24 h
RAW264.7 [3] = test: Anti-inflammatory activity in mouse RAW264.7 cells assessed as inhibition of LPS-induced NO production preincubated with compound for 1 hrs followed by LPS stimulation and measured after 24 hrs; format: functional, cell-based; conditions: time 25.0 hrs
RAW264.7 [4] = test: Anti-inflammatory activity in LPS-induced mouse RAW264.7 cells assessed as reduction in PGE2 level preincubated with compound for 1 hrs followed by LPS stimulation and measured after 24 hrs by ELISA; format: functional, cell-based; conditions: time 25.0 hrs
PC-12 [5] = test: Protection against SNP-induced cell damage in rat PC-12 cells at 10 uM pretreated with compound for 2 hrs followed by SNP addition and measured after 24 hrs by MTT assay; format: functional, cell-based; conditions: time 26.0 hrs
PC-12 [6] = test: Neuroprotective activity against SNP-induced cell damage in rat PC-12 cells pretreated with compound for 2 hrs followed by SNP addition and measured after 24 hrs by MTT assay; format: functional, cell-based; conditions: dose 2.5-100 µM, time 26.0 hrs
Rattus norvegicus [7] = test: Neuroprotective activity against middle cerebral artery occlusion induced ischemia stroke Sprague-Dawley rat model assessed as cerebral infarction area at 10 mg/kg, ip measured after 24 hrs by TTC staining based imaging analysis (reference value: 20.08 +/- 5.70); format: functional
Rattus norvegicus [8] = test: Neuroprotective activity against middle cerebral artery occlusion induced ischemia stroke Sprague-Dawley rat model assessed as reduction in glycocalyx degradation by measuring decrease in serum syndecan-1 level at 20 mg/kg, ip measured after 24 hrs by ELISA; format: functional, organism-based
PC-12 [9] = test: Neuroprotective activity against SNP-induced cell damage in rat PC-12 cells at 2.5 to 100 uM pretreated with compound for 2 hrs followed by SNP addition and measured after 24 hrs by MTT assay; format: functional, cell-based; conditions: dose 2.5-100 µM, time 26.0 hrs

Compound | IC50 [1] | Activity (PC-12 [5]) | other results
NS(=O)(=O)c1ccc(-n2nc(-c3ccc(C(F)(F)F)cc3)nc2-c2ccccc2O)cc1 | 43.4 µM | Active | Activity (RAW264.7 [2]): Non-Toxic; Activity (RAW264.7 [3]): Active; Activity (RAW264.7 [4]): Active
NS(=O)(=O)c1ccc(-n2nc(-c3ccccc3)nc2-c2ccccc2O)cc1 | 32.1 µM | Active | Activity (RAW264.7 [2]): Non-Toxic; Activity (RAW264.7 [3]): Active; Activity (RAW264.7 [4]): Active
NS(=O)(=O)c1ccc(-n2nc(-c3ccc(F)cc3)nc2-c2ccccc2O)cc1 | 41.6 µM | Active | Activity (RAW264.7 [2]): Non-Toxic; Activity (RAW264.7 [3]): Active; Activity (RAW264.7 [4]): Active
NS(=O)(=O)c1ccc(-n2nc(-c3ccccc3O)nc2-c2ccccc2O)cc1 | 39.2 µM | Active | Activity (RAW264.7 [2]): Non-Toxic; Activity (RAW264.7 [3]): Active; Activity (RAW264.7 [4]): Active; Activity (PC-12 [6]): Dose-Dependent Effect
NS(=O)(=O)c1ccc(-n2nc(-c3ccc([N+](=O)[O-])cc3)nc2-c2ccccc2O)cc1 | – | Active | –
Oc1cc(C(F)(F)F)ccc1-c1nc(-c2ccccc2O)n(-c2ccccc2)n1 | – | Active | –
COc1ccc(-c2nc(-c3ccccc3OC(C)=O)n(-c3ccccc3)n2)c(OC(C)=O)c1 | – | Active | –
CC1=NN(c2ccccc2)C(=O)C1 [EDARAVONE] | – | – | Activity (Rattus norvegicus [7]): 15.41; Activity (Rattus norvegicus [8]): Active
COc1ccc(-c2nc(-c3ccccc3O)n(-c3ccc(S(C)(=O)=O)cc3)n2)c(O)c1 | – | Active | –
COc1ccc(O)c(-c2nc(-c3ccccc3O)n(-c3ccc(S(N)(=O)=O)cc3)n2)c1 | 12.8 µM | Active | –
COc1ccc(-c2nc(-c3ccccc3O)n(-c3ccc(S(N)(=O)=O)cc3)n2)c(O)c1 | 45.5 µM | Active | –
NS(=O)(=O)c1ccc(-n2nc(-c3ccc([N+](=O)[O-])cc3O)nc2-c2ccccc2O)cc1 | – | Active | –
NS(=O)(=O)c1ccc(-n2nc(-c3ccc(F)cc3O)nc2-c2ccccc2O)cc1 | – | Active | –
CC(=O)Oc1cc(C(F)(F)F)ccc1-c1nc(-c2ccccc2OC(C)=O)n(-c2ccccc2)n1 | – | Active | –
NS(=O)(=O)c1ccc(-n2nc(-c3ccc(F)cc3O)nc2-c2ccc(F)cc2O)cc1 | 26.3 µM | Active | Activity (RAW264.7 [2]): Non-Toxic; Activity (RAW264.7 [3]): Active; Activity (RAW264.7 [4]): Active; Activity (PC-12 [6]): Dose-Dependent Effect
COc1ccc(-c2nc(-c3ccccc3O)n(-c3ccc(S(N)(=O)=O)cc3)n2)cc1 | – | Active | –
COc1cccc(-c2nc(-c3ccccc3O)n(-c3ccc(S(N)(=O)=O)cc3)n2)c1O | 20 µM | Active | –
NS(=O)(=O)c1ccc(-n2nc(-c3ccc(C(F)(F)F)cc3O)nc2-c2ccc(C(F)(F)F)cc2O)cc1 | – | Active | –
CS(=O)(=O)c1ccc(-n2nc(-c3ccccc3O)nc2-c2ccccc2O)cc1 | – | Active | –
CS(=O)(=O)c1ccc(-n2nc(-c3ccc(C(F)(F)F)cc3O)nc2-c2ccccc2O)cc1 | 82.1 µM | Active | Activity (RAW264.7 [2]): Non-Toxic; Activity (RAW264.7 [3]): Active; Activity (RAW264.7 [4]): Active; Activity (PC-12 [6]): Dose-Dependent Effect
NS(=O)(=O)c1ccc(-n2nc(-c3ccc(Cl)cc3O)nc2-c2ccccc2O)cc1 | 25.6 µM | Active | –
COc1ccc(-c2nc(-c3ccccc3O)n(-c3ccccc3)n2)c(O)c1 | – | Active | –
NS(=O)(=O)c1ccc(-n2nc(-c3ccc(Cl)cc3O)nc2-c2ccc(Cl)cc2O)cc1 | – | Active | –
Cc1ccc(-c2nc(-c3ccccc3O)n(-c3ccc(S(N)(=O)=O)cc3)n2)c(O)c1 | 42.3 µM | Active | Activity (RAW264.7 [2]): Non-Toxic; Activity (RAW264.7 [3]): Active; Activity (RAW264.7 [4]): Active; Activity (PC-12 [6]): Dose-Dependent Effect
Cc1ccc(-c2cc(C(F)(F)F)nn2-c2ccc(S(N)(=O)=O)cc2)cc1 [CELECOXIB] | – | – | Activity (RAW264.7 [2]): Non-Toxic; Activity (RAW264.7 [3]): Active; Activity (RAW264.7 [4]): Active; Activity (PC-12 [9]): inactive
Cc1ccc(-c2nc(-c3ccc(C)cc3O)n(-c3ccc(S(N)(=O)=O)cc3)n2)c(O)c1 | – | Active | –
Oc1ccccc1-c1nc(-c2ccccc2O)n(-c2ccccc2)n1 | – | Active | –
COc1ccc(-c2nc(-c3ccc(OC)cc3O)n(-c3ccc(S(N)(=O)=O)cc3)n2)c(O)c1 | – | Active | –
CC(=O)Oc1ccccc1-c1nc(-c2ccccc2OC(C)=O)n(-c2ccccc2)n1 | – | Active | –
